Consider two molecules from ChEMBL document CHEMBL1159259, “A bioactive tetraprenylphenol from Lactarius lignyotus” (1995).

Type in all cases: functional
What all share (set-up): scale not given: the % may be the effect or the level left

Test [1] concerns HL-60. Put plainly: Inhibition of RNA synthesis in human HL60 cells assessed as [3H]uridine incorporation at 75 ug/ml after 45 mins by liquid scintillation counting.
Test [2] has as its system HeLa S3. Put plainly: Inhibition of protein synthesis in human HeLaS3 cells assessed as [3H]leucine incorporation at 50 ug/ml after 45 mins by liquid scintillation counting.
In test [3] the test system is HeLa S3. Kind of test: Inhibition of DNA synthesis in human HeLaS3 cells assessed as [3H]thymidine incorporation at 10.4 ug/ml after 45 mins by liquid scintillation counting. On the technique in general: Uptake of a labelled nucleoside into DNA is a usual measure of proliferation.
Test [4] concerns HL-60. Kind of test: Inhibition of RNA synthesis in human HL60 cells assessed as [3H]uridine incorporation at 10.4 ug/ml after 45 mins by liquid scintillation counting.
In test [5] the test system is HL-60. Put plainly: Inhibition of DNA synthesis in human HL60 cells assessed as [3H]thymidine incorporation at 50 ug/ml after 45 mins by liquid scintillation counting.
For test [6], the system named is HeLa S3. Put plainly: Inhibition of RNA synthesis in human HeLaS3 cells assessed as [3H]uridine incorporation at 50 ug/ml after 45 mins by liquid scintillation counting.
Test [7] has as its system HeLa S3. Kind of test: Inhibition of RNA synthesis in human HeLaS3 cells assessed as [3H]uridine incorporation at 25 ug/ml after 45 mins by liquid scintillation counting.
Test [8] concerns HeLa S3. Kind of test: Inhibition of protein synthesis in human HeLaS3 cells assessed as [3H]leucine incorporation at 10.4 ug/ml after 45 mins by liquid scintillation counting.
For test [9], the system named is HeLa S3. Kind of test: Inhibition of RNA synthesis in human HeLaS3 cells assessed as [3H]uridine incorporation at 75 ug/ml after 45 mins by liquid scintillation counting.
The subject of test [10] is HeLa S3. Put plainly: Inhibition of protein synthesis in human HeLaS3 cells assessed as [3H]leucine incorporation at 25 ug/ml after 45 mins by liquid scintillation counting.
In test [11] the test system is HL-60. Kind of test: Inhibition of protein synthesis in human HL60 cells assessed as [3H]leucine incorporation at 50 ug/ml after 45 mins by liquid scintillation counting.
Test [12] deals with HL-60. Kind of test: Inhibition of protein synthesis in human HL60 cells assessed as [3H]leucine incorporation at 25 ug/ml after 45 mins by liquid scintillation counting.
For test [13], the system named is HeLa S3. Put plainly: Inhibition of RNA synthesis in human HeLaS3 cells assessed as [3H]uridine incorporation at 10.4 ug/ml after 45 mins by liquid scintillation counting.
For test [14], the system named is HL-60. Put plainly: Inhibition of RNA synthesis in human HL60 cells assessed as [3H]uridine incorporation at 25 ug/ml after 45 mins by liquid scintillation counting.
Test [15] has as its system HeLa S3. Put plainly: Inhibition of DNA synthesis in human HeLaS3 cells assessed as [3H]thymidine incorporation at 25 ug/ml after 45 mins by liquid scintillation counting.
In test [16] the test system is HeLa S3. Put plainly: Inhibition of DNA synthesis in human HeLaS3 cells assessed as [3H]thymidine incorporation at 75 ug/ml after 45 mins by liquid scintillation counting.
Test [17] deals with HL-60. Put plainly: Inhibition of DNA synthesis in human HL60 cells assessed as [3H]thymidine incorporation at 10.4 ug/ml after 45 mins by liquid scintillation counting.
Test [18] has as its system HeLa S3. Put plainly: Inhibition of protein synthesis in human HeLaS3 cells assessed as [3H]leucine incorporation at 75 ug/ml after 45 mins by liquid scintillation counting.
The subject of test [19] is HL-60. Kind of test: Inhibition of protein synthesis in human HL60 cells assessed as [3H]leucine incorporation at 75 ug/ml after 45 mins by liquid scintillation counting.
For test [20], the system named is HL-60. Put plainly: Inhibition of DNA synthesis in human HL60 cells assessed as [3H]thymidine incorporation at 25 ug/ml after 45 mins by liquid scintillation counting.
Test [21] deals with HeLa S3. Put plainly: Inhibition of DNA synthesis in human HeLaS3 cells assessed as [3H]thymidine incorporation at 50 ug/ml after 45 mins by liquid scintillation counting.
The subject of test [22] is HL-60. Kind of test: Inhibition of RNA synthesis in human HL60 cells assessed as [3H]uridine incorporation at 50 ug/ml after 45 mins by liquid scintillation counting.
Test [23] has as its system HL-60. Kind of test: Inhibition of protein synthesis in human HL60 cells assessed as [3H]leucine incorporation at 10.4 ug/ml after 45 mins by liquid scintillation counting.
The test system of test [24] is HL-60. Put plainly: Inhibition of DNA synthesis in human HL60 cells assessed as [3H]thymidine incorporation at 75 ug/ml after 45 mins by liquid scintillation counting.

`COc1ccc(O)c(CC=C(C)C)c1`: the Activity in the test on HL-60 [1] was determined as 38%; in the test with HeLa S3 [2], 38%; in the test on HeLa S3 [3] it was 100%; in the test on HL-60 [4], 98%; in the test with HL-60 [5] it was 14%; with HeLa S3 [6], 91%. Also, the Activity in the test on HeLa S3 [7] stood at 86%; with HeLa S3 [8], 96%; in the test with HeLa S3 [9], 90%; in the test on HeLa S3 [10], 43%; with HL-60 [11], 35%; in the test with HL-60 [12] it was 38%. In addition, the Activity is reported as 97% in the test on HeLa S3 [13]; 50% in the test with HL-60 [14]; 59% in the test with HeLa S3 [15]; 31% in the test with HeLa S3 [16]; 64% in the test with HL-60 [17]; 37% in the test with HeLa S3 [18]. Further, the Activity stood at 32% in the test with HL-60 [19]; 32% in the test with HL-60 [20]; 70% with HeLa S3 [21]; 55% with HL-60 [22]; 49% in the test on HL-60 [23]; 1.5% with HL-60 [24].
In the case of `CC(C)=CCC/C(C)=C/CC/C(C)=C/CC/C(C)=C/Cc1cc(O)ccc1O` [GERANYLGERANYLHYDROQUINONE], the Activity in the test on HL-60 [1] is given as 42%; in the test with HeLa S3 [2], 67%; with HeLa S3 [3], 100%; with HL-60 [4], 95%; in the test on HL-60 [5], 20%; in the test with HeLa S3 [6] it was 91%. Further, the Activity is recorded as 83% in the test on HeLa S3 [7]; 100% in the test with HeLa S3 [8]; 86% with HeLa S3 [9]; 92% in the test on HeLa S3 [10]; 52% in the test with HL-60 [11]; 52% with HL-60 [12]. Besides, the Activity in the test on HeLa S3 [13] worked out at 96%; with HL-60 [14] it was 32%; with HeLa S3 [15] it was 74%; in the test with HeLa S3 [16], 49%; in the test on HL-60 [17] it was 55%; with HeLa S3 [18], 61%. For the same molecule, the Activity was 32% with HL-60 [19]; 38% in the test on HL-60 [20]; 83% with HeLa S3 [21]; 36% in the test with HL-60 [22]; 85% in the test with HL-60 [23]; 17% in the test on HL-60 [24].
